This experiment has as its target T1, human CH24H (Homo sapiens, UniProt Q9Y6A2).
T1 construct: Using Full-Length Mammalian Gene Collection No. 4819975 (Invitrogen) as a template; made in house; host or cells: FreeStyle 293-F cells, transient transfection with pcDNA3.1(+)/hCH24H; lysate supernatant, not purified
Kind of experiment: Measurement of CH24H inhibitory activity (24-HC produced from [14C] cholesterol by human CH24H lysate). The format is biochemical. The following applies: 1 μM test compound, [14C] cholesterol 15 μM, 37° C. for 5 hr, read-out: Inhibitory Rate in 1 μM (%). Here is the method: The expression of human CH24H was performed using FreeStyle 293 Expression System (Invitrogen). […] After transfection, the cells were cultured at 37° C., 8% CO2 with shaking at 125 rpm for 2 days. The cells were collected by centrifugation, and suspended in a suspension buffer (100 mM potassium phosphate (pH 7.4), 0.1 mM EDTA, 1 mM DTT, 20% Glycerol). The suspended product was disrupted by a polytron homogenizer (manufactured by Kinematica), and centrifuged at 9000×g for 10 min, and the supernatant was collected. The collected supernatant was cryopreserved (−80° C.) as a human CH24H lysate standard product.
For the measurement of CH24H inhibitory activity, using the human CH24H lysate prepared in Experimental Example 2, the amount of 24-HC produced from cholesterol by catalytic activity of CH24H was measured in the presence of a test compound, and compared with that measured in the absence of the test compound. That is, a test compound solution at various concentrations was mixed with a reaction buffer (50 mM potassium phosphate containing 0.1% BSA and Complete, EDTA-free, pH 7.4) and human CH24H lysate. Then, [^14C] cholesterol (53 mCi/mmol specific activity, 15 μM) was added, and CH24H reaction was performed at 37° C. for 5 hr. After completion of the reaction, a quenching solution consisting of chloroform/methanol/distilled water (2:2:1 v/v) was added, and the resulting 24-HC was extracted by shaking. The extract was applied to silica gel thin layer chromatography (ethyl acetate:toluene=4:6), and the obtained ^14C-24HC fraction was measured with BAS2500 (Fujifilm Corporation).
The inhibitory rate (%) was calculated from the ratio of radioactivity in the presence of a test compound relative to the radioactivity in the absence of the test compound.

T1 sequence (Q9Y6A2 whole entry): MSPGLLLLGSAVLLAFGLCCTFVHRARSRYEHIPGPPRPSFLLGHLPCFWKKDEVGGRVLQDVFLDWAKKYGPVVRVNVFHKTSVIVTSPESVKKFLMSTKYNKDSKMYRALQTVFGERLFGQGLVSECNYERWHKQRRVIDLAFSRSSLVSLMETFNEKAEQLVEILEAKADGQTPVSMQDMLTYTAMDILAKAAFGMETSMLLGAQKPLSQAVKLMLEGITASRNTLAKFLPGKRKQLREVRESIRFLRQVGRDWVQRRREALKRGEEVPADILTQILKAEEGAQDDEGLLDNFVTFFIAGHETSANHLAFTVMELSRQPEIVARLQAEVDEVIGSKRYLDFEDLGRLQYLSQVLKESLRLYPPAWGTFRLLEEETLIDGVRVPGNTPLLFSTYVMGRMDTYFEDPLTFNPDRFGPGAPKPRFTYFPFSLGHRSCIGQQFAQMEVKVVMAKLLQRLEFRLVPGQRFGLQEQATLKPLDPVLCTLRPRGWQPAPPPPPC

For `O=C(C1CCN(c2cnccc2-n2cc(Br)cn2)CC1)N1CC[C@H](F)C1` [Example 318, (1-(4-(4-bromo-1H-pyrazol-1-yl)pyridin-3-yl)piperidin-4-yl)((3S)-3-fluoropyrrolidin-1-yl)methanone], the inhibition at 1 µM came out at 94%. Take `Cc1cnn(-c2ccncc2N2CCC(C(=O)N(CCF)C3CCOCC3)CC2)c1` [Example 311, N-(2-fluoroethyl)-1-(4-(4-methyl-1H-pyrazol-1-yl)pyridin-3-yl)-N-(tetrahydro-2H-pyran-4-yl)piperidine-4-carboxamide]: the inhibition at 1 µM was 79%.

In the case of `O=C(NCc1ccccc1)N1CCN(c2cncnc2-c2ccccc2)CC1` [Example 175, N-benzyl-4-(4-phenylpyrimidin-5-yl)piperazine-1-carboxamide], the inhibition at 1 µM turned out to be 95%.

Take `Cc1cnn(-c2ccncc2N2CCC(C(=O)N(C)C3CC3)CC2)c1` [Example 86, N-cyclopropyl-N-methyl-1-(4-(4-methyl-1H-pyrazol-1-yl)pyridin-3-yl)piperidine-4-carboxamide]: the inhibition at 1 µM amounted to 98%. On to `O=C(NC1CCOCC1)C1CCN(c2cnccc2-n2cc(Cl)cn2)CC1(F)F` (stereo not shown) [Example 79, 1-(4-(4-chloro-1H-pyrazol-1-yl)pyridin-3-yl)-3,3-difluoro-N-(tetrahydro-2H-pyran-4-yl)piperidine-4-carboxamide], for which the inhibition at 1 µM is 93%. With `Cc1cnc(-c2ccncc2N2CCC(C(=O)N3CC(F)C3)CC2)s1` [Example 317, (3-fluoroazetidin-1-yl) (1-(4-(5-methyl-1,3-thiazol-2-yl)pyridin-3-yl)piperidin-4-yl)methanone] the figure was 95%; with `Cc1cn(-c2ccncc2N2CCC(C(=O)NC3CC3)CC2)nc1C` [Example 200, N-cyclopropyl-1-(4-(3,4-dimethyl-1H-pyrazol-1-yl)pyridin-3-yl)piperidine-4-carboxamide], 88%.

In the case of `O=C(C1CCN(c2cnccc2-n2cc(C3CC3)cn2)CC1)N1CC(F)C1` [Example 323, (1-(4-(4-cyclopropyl-1H-pyrazol-1-yl)pyridin-3-yl)piperidin-4-yl)(3-fluoroazetidin-1-yl)methanone], the inhibition at 1 µM turned out to be 93%. For the molecule `CNC(=O)N1CCN(c2cncnc2-c2ccccc2)CC1` [Example 177, N-methyl-4-(4-phenylpyrimidin-5-yl)piperazine-1-carboxamide], the inhibition at 1 µM amounted to 92%. Take `CN(C(=O)C1CCN(c2cnccc2-n2cc(Cl)cn2)CC1)C1CCOCC1` [Example 54, 1-(4-(4-chloro-1H-pyrazol-1-yl)pyridin-3-yl)-N-methyl-N-(tetrahydro-2H-pyran-4-yl)piperidine-4-carboxamide]: the inhibition at 1 µM amounted to 99%. With `CN(C(=O)C1CCN(c2cnccc2-n2cc(Cl)cn2)CC1)[C@H]1CCOC1` [Example 307, 1-(4-(4-chloro-1H-pyrazol-1-yl)pyridin-3-yl)-N-methyl-N-((3S)-tetrahydrofuran-3-yl)piperidine-4-carboxamide], the inhibition at 1 µM was determined as 81%. With `Cc1nnc(-c2ccncc2N2CCC(C(=O)N3CCC[C@@H]3C#N)CC2)s1` [Example 87, (2R)-1-((1-(4-(5-methyl-1,3,4-thiadiazol-2-yl)pyridin-3-yl)piperidin-4-yl)carbonyl)pyrrolidine-2-carbonitrile] the figure was 98%; with `Cc1nnc(-c2ccncc2N2CCC(F)(C(=O)N3CCC[C@@H]3C#N)CC2)s1` [Example 131, (2R)-1-((4-fluoro-1-(4-(5-methyl-1,3,4-thiadiazol-2-yl)pyridin-3-yl)piperidin-4-yl)carbonyl)pyrrolidine-2-carbonitrile], 87%. Turning to `CO[C@H]1C[C@H](C#N)N(C(=O)C2CCN(c3cnccc3-n3cc(C)cn3)CC2)C1` [Example 144, (2R,4S)-4-methoxy-1-((1-(4-(4-methyl-1H-pyrazol-1-yl)pyridin-3-yl)piperidin-4-yl)carbonyl)pyrrolidine-2-carbonitrile], the inhibition at 1 µM came out at 98%. `CO[C@@H]1CCN(C(=O)C2CCN(c3cncnc3-c3ccc(F)cc3)CC2)C1` [Example 304, (1-(4-(4-fluorophenyl)pyrimidin-5-yl)piperidin-4-yl)((3R)-3-methoxypyrrolidin-1-yl)methanone]: the inhibition at 1 µM is 86%. In the case of `CCNC(=O)N1CCN(c2cncnc2-c2ccccc2)CC1` [Example 176, N-ethyl-4-(4-phenylpyrimidin-5-yl)piperazine-1-carboxamide], the inhibition at 1 µM amounted to 82%. Regarding `Cc1cnn(-c2ccncc2N2CCC(C(=O)N(C)[C@@H]3CCOC3)CC2)c1` [Example 306, N-methyl-1-(4-(4-methyl-1H-pyrazol-1-yl)pyridin-3-yl)-N-((3R)-tetrahydrofuran-3-yl)piperidine-4-carboxamide], the inhibition at 1 µM worked out at 85%. On to `O=C(C1CCN(c2cnccc2-n2cc(Cl)cn2)CC1)N1C2COCC1C2` [Example 35, (1-(4-(4-chloro-1H-pyrazol-1-yl)pyridin-3-yl)piperidin-4-yl)(3-oxa-6-azabicyclo[3.1.1]hept-6-yl)methanone], for which the inhibition at 1 µM stood at 98%. Consider `C[C@@H]1CN(c2cncnc2-c2ccccc2)CCN1C(=O)OCc1ccccc1` [Example 158, benzyl (2R)-2-methyl-4-(4-phenylpyrimidin-5-yl)piperazine-1-carboxylate], for which the inhibition at 1 µM turned out to be 85%.

On to `Cc1nnc(-c2ccncc2N2CCC(C(=O)N3CCC[C@]3(C)C#N)CC2)s1` [Example 128, (2R)-2-methyl-1-((1-(4-(5-methyl-1,3,4-thiadiazol-2-yl)pyridin-3-yl)piperidin-4-yl)carbonyl)pyrrolidine-2-carbonitrile], for which the inhibition at 1 µM stood at 97%. In the case of `CN(C(=O)C1CCN(c2cnccc2-n2cc(Cl)cn2)CC1)[C@@H]1CCOC1` [Example 308, 1-(4-(4-chloro-1H-pyrazol-1-yl)pyridin-3-yl)-N-methyl-N-((3R)-tetrahydrofuran-3-yl)piperidine-4-carboxamide], the inhibition at 1 µM turned out to be 83%. On to `Cc1cnn(-c2ccncc2N2CCC(C(=O)Nc3ccccc3)CC2)c1` [Example 73, 1-(4-(4-methyl-1H-pyrazol-1-yl)pyridin-3-yl)-N-phenylpiperidine-4-carboxamide], for which the inhibition at 1 µM was 97%. `O=C(C1CCN(c2cnccc2-c2ccccn2)CC1)N1CC(F)(F)C1` [Example 213, (1-(2,4′-bipyridin-3′-yl)piperidin-4-yl) (3,3-difluoroazetidin-1-yl)methanone]: the inhibition at 1 µM was 93%. With `C[C@H]1CN(c2cncnc2-c2ccccc2)CCN1C(=O)CC1CC1` [Example 170, 2-cyclopropyl-1-((2S)-2-methyl-4-(4-phenylpyrimidin-5-yl)piperazin-1-yl)ethanone], the inhibition at 1 µM turned out to be 86%. For the molecule `O=C(N1CCN(c2cnccc2-c2ccccc2)CC1)N1CCC1c1ccc(F)cc1` (stereo not shown) [Example 190, (2-(4-fluorophenyl)azetidin-1-yl) (4-(4-phenylpyridin-3-yl)piperazin-1-yl)methanone], the inhibition at 1 µM turned out to be 87%. Take `Cc1cnn(-c2ccncc2N2[C@@H]3CC[C@H]2C[C@H](C(=O)N(C)C)C3)c1` [Example 13, (3-exo)-N,N-dimethyl-8-(4-(4-methyl-1H-pyrazol-1-yl)pyridin-3-yl)-8-azabicyclo[3.2.1]octane-3-carboxamide]: the inhibition at 1 µM worked out at 89%.

As for `O=C(C1CCN(c2cncnc2-c2ccc(F)cc2)CC1)N1CC(F)C1` [Example 278, (3-fluoroazetidin-1-yl)(1-(4-(4-fluorophenyl)pyrimidin-5-yl)piperidin-4-yl)methanone], the inhibition at 1 µM is 75%. Regarding `CO[C@@H]1C[C@H](C#N)N(C(=O)C2CCN(c3cnccc3-n3cc(C)cn3)CC2)C1` [Example 138, (2R,4R)-4-methoxy-1-((1-(4-(4-methyl-1H-pyrazol-1-yl)pyridin-3-yl)piperidin-4-yl)carbonyl)pyrrolidine-2-carbonitrile], the inhibition at 1 µM came to 93%. For `Cc1cnn(-c2ccncc2N2CCC(C(=O)N3CC(F)C3)CC2)c1` [Example 280, (3-fluoroazetidin-1-yl)(1-(4-(4-methyl-1H-pyrazol-1-yl)pyridin-3-yl)piperidin-4-yl)methanone], the inhibition at 1 µM was determined as 78%.

Turning to `N#C[C@@H]1CC(F)(F)CN1C(=O)C1CCN(c2cnccc2-n2cc(Cl)cn2)CC1` [Example 119, (2S)-1-((1-(4-(4-chloro-1H-pyrazol-1-yl)pyridin-3-yl)piperidin-4-yl)carbonyl)-4,4-difluoropyrrolidine-2-carbonitrile], the inhibition at 1 µM is 93%.

As for `N#C[C@H]1CC(F)(F)CN1C(=O)C1CCN(c2cnccc2-c2ccccn2)CC1` [Example 143, (2R)-1-((1-(2,4′-bipyridin-3′-yl)piperidin-4-yl)carbonyl)-4,4-difluoropyrrolidine-2-carbonitrile], the inhibition at 1 µM came to 98%.
